Test results: patent publication US6919455B2, “Purine derivative dihydrate, drugs containing the same as the active ingredient and intermediate in the production thereof” (Mitsubishi Chemical Corporation, priority 1999, dated 2005)

System: PDE IV
Assay: PDE IV inhibiting effect (3H-cAMP hydrolysis, crude enzyme from U937 cells)
Conditions: read-out: IC50 (concentration for 50% inhibition) against PDE IV; crude enzyme from cytoplasmic fraction of human monocyte-like U937 cells; 0.4 μM 3H-cAMP; pH 8.0; 30° C., 15 minutes
Method: The crude enzyme was purified from a cytoplasmic fraction of human monocyte-like cell strain U937 by using a Q-Sepharose column according to the method of Nicholson et al. (Br. J. Pharmacol., 97, 889 (1989)]. The enzymatic activity was determined by performing a reaction using 0.4 μM ^3H-cAMP as the substrate in 50 mM Tris buffer (pH 8.0) containing 0.1 mg/ml BSA, 1 ml of EDTA and 5 mM MgCl2 at 30° C. for 15 minutes, and then separating the produced ^3H-5′-AMP using a cation exchange column and measuring its radioactivity according to the method of Hidaka et al. [Biochem. Med., 10, 301 (1974)]. After a test compound was added, the reaction mixture was incubated at 30° C. for 15 minutes, and then added with the substrate.

COc1ccc(Cn2c(C)nc3c(C)nc(OCCCc4cc[n+]([O-])cc4)nc32)cc1OC1CCCC1 [dihydrate of the present invention, Dihydrate of 4-[[9-[(3-cyclopentyloxy-4-methoxy)benzyl]-6,8-dimethylpurine]-2-yl-3-oxypropyl]pyridine N-oxide]
IC50: 3.41 nM
